For 19 molecules, IC50 results are on record in patent US20190263818A1 (LifeSci Pharmaceuticals, Inc., priority 2015, published 2019).

The IC50 is the point on the concentration scale where inhibition reaches its midpoint.

T1 sequence (P03952 391-638 limits assumed): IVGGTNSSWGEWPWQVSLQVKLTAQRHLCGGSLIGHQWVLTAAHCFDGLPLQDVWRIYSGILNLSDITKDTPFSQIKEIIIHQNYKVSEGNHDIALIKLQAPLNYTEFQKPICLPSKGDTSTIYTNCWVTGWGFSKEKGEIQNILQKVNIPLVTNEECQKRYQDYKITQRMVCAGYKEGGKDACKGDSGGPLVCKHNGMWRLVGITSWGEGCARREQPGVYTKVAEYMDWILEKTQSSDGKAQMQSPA
T1 sequence (P03952 20-390 partner limits assumed): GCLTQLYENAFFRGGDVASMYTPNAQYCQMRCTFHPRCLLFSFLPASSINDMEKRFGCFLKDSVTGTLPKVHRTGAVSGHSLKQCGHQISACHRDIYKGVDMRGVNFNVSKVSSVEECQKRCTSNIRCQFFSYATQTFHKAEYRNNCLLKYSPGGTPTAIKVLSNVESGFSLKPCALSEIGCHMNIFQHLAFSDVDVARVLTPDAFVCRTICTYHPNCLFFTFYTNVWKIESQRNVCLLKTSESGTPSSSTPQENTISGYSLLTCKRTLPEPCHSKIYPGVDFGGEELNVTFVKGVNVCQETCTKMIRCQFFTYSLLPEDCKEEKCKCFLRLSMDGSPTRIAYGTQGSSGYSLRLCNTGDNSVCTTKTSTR

The experiment concerns the target T1, human plasma kallikrein (Homo sapiens, UniProt P03952).
T1 construct: purchased Abcam
The experiment in a line: In vitro enzyme inhibition of human plasma kallikrein (Pro-Phe-Arg-AMC cleavage). Type of experiment: biochemical. Particulars: human Plasma Kallikrein (Abcam), substrate Pro-Phe-Arg-AMC, 37° C., Tris-HCl pH 7.5; read-out: hPK IC50. How it is done: The ability of the compounds disclosed herein to inhibit human plasma kallikrein activity was quantified according to the procedures below.
A 10 mM solution of the test compound was made in DMSO. This solution was serially diluted 1:5 in DMSO to yield 2000, 400, 80, 16, 3.2, 0.64, 0.128, 0.0256 and […] compound test solutions. A control tube containing only DMSO is included. 16 μL of each compound test solution was combined with 384 μL of assay buffer (50 mM Tris-HCl pH 7.5, 150 mM NaCl, 0.01% Triton X-100) to yield a “4× test compound buffer stock”. Separately, a 40 nM solution of human Plasma Kallikrein (Abcam) and a 93.6 μM solution Pro-Phe-Arg-AMC (Bachem) were made using assay buffer. These solutions are hereby referred to as 4× hPK and 2×PFR-AMC, respectively.
60 μL of each 4× test compound buffer stock was combined with 60 μL of 4× hPK to yield 120 μL of “2× test compound buffer stock/2× hPK”. 50 μL was removed from this mixture and placed into duplicate wells on a Microfluor 1Black U-bottom microtiter plate (Thermo Scientific). This plate was incubated for 5 minutes at 37° C. To each well, 50 μL of pre-warmed 2×PFR-AMC was added to start the enzymatic reaction. Cleavage of PFR-AMC was monitored in a Biotek Synergy H4 reader set at 37° C. Readings are taken every 43 seconds for 1 hour. The highest mean velocity over 20 reads (˜15 minutes) is used to calculate the IC50. The IC50 is calculated using the Gen5 (Biotek Instruments).
The ability of the compounds in Table 4 to inhibit human plasma kallikrein activity was determined.
As for `Clc1cnc2ccc(Cc3ccc4onc(NCc5cnc6[nH]cc(Cl)c6c5)c4c3)cc2c1` [Example 1, N-((3-chloro-1H-pyrrolo[2,3-b]pyridin-5-yl)methyl)-5-((3-chloroquinolin-6-yl)methyl)benzo[d]isoxazol-3-amine], the IC50 was in the range of 100 to 1000 nM. As to `Cn1nc(NCc2cnc3[nH]cc(Cl)c3c2)c2cc(Cc3ccc4ncc(Cl)cc4c3)ccc21` [Example 2, N-((3-chloro-1H-pyrrolo[2,3-b]pyridin-5-yl)methyl)-5-((3-chloroquinolin-6-yl)methyl)-1-methyl-1H-indazol-3-amine], the IC50 fell in the range of 100 to 1000 nM. Under `Clc1cnc2ccc(Cc3ccc4[nH]nc(NCc5cnc6[nH]cc(Cl)c6c5)c4c3)cc2c1` [Example 3, N-((3-chloro-1H-pyrrolo[2,3-b]pyridin-5-yl)methyl)-5-((3-chloroquinolin-6-yl)methyl)-1H-indazol-3-amine] stands 100 to 1000 nM; under `Cc1cc(N)nc(C)c1CNc1nccc2nc(Cc3ccc4ncc(Cl)cc4c3)[nH]c12` [Example 4, N-((6-amino-2,4-dimethylpyridin-3-yl)methyl)-2-((3-chloroquinolin-6-yl)methyl)-3H-imidazo[4,5-c]pyridin-4-amine], 1000 to 10000 nM; under `Fc1cc2[nH]cc(Cl)c2cc1CNc1ncnc2nc(Cc3ccc4ncc(Cl)cc4c3)[nH]c12` [Example 5], at most 100 nM. Take `Clc1cnc2ccc(Cc3nc4ncnc(NCc5n[nH]c6ccc(Cl)cc56)c4[nH]3)cc2c1` [Example 6, N-((5-chloro-1H-indazol-3-yl)methyl)-8-((3-chloroquinolin-6-yl)methyl)-7H-purin-6-amine]: the IC50 is at most 100 nM.

Turning to `Fc1c(CNc2ncnc3nc(Cc4ccc5ncc(Cl)cc5c4)[nH]c23)ccc2[nH]cc(Cl)c12` [Example 7, N-((3-chloro-4-fluoro-1H-indol-5-yl)methyl)-8-((3-chloroquinolin-6-yl)methyl)-7H-purin-6-amine], the IC50 was at most 100 nM. As for `Clc1cnc2ccc(Cc3nc4ncnc(NCc5cnc6[nH]cc(Cl)c6c5)c4[nH]3)cc2c1` [Example 8, N-((3-chloro-1H-pyrrolo[2,3-b]pyridin-5-yl)methyl)-8-((3-chloroquinolin-6-yl)methyl)-7H-purin-6-amine], the IC50 was at most 100 nM.

Take `Cc1cc(N)nc(C)c1CNc1ncnc2cn(Cc3ccc4ncc(Cl)cc4c3)nc12` [Example 9, N-((6-amino-2,4-dimethylpyridin-3-yl)methyl)-2-((3-chloroquinolin-6-yl)methyl)-2H-pyrazolo[4,3-d]pyrimidin-7-amine]: the IC50 is at most 100 nM.

On to `Cc1cc(N)nc(C)c1CNc1ncnc2nc(Cc3ccc4ncc(C(F)(F)F)cc4c3)[nH]c12` [Example 10, N-((6-amino-2,4-dimethylpyridin-3-yl)methyl)-8-((3-(trifluoromethyl)quinolin-6-yl)methyl)-7H-purin-6-amine], for which the IC50 is at most 100 nM. Turning to `Fc1cc2[nH]cc(Cl)c2cc1CNc1ncnc2nc(Cc3ccc4ncc(C(F)(F)F)cc4c3)[nH]c12` [Example 11, N-((3-chloro-6-fluoro-1H-indol-5-yl)methyl)-8-((3-(trifluoromethyl)quinolin-6-yl)methyl)-7H-purin-6-amine], the 50% inhibitory concentration (IC50) was at most 100 nM.

With `FC(F)(F)c1cnc2ccc(Cc3nc4ncnc(NCc5n[nH]c6ccc(Cl)cc56)c4[nH]3)cc2c1` [Example 12, N-((5-chloro-1H-indazol-3-yl)methyl)-8-((3-(trifluoromethyl)quinolin-6-yl)methyl)-7H-purin-6-amine], the IC50 was at most 100 nM. Take `Fc1c(CNc2ncnc3nc(Cc4ccc5ncc(C(F)(F)F)cc5c4)[nH]c23)ccc2[nH]cc(Cl)c12` [Example 13, N-((3-chloro-4-fluoro-1H-indol-5-yl)methyl)-8-((3-(trifluoromethyl)quinolin-6-yl)methyl)-7H-purin-6-amine]: the IC50 was at most 100 nM. As to `Nc1nccc2cc(CNc3ncnc4nc(Cc5ccc6ncc(C(F)(F)F)cc6c5)[nH]c34)ccc12` [Example 14, 6-(((8-((3-(trifluoromethyl)quinolin-6-yl)methyl)-7H-purin-6-yl)amino)methyl)isoquinolin-1-amine], the IC50 is at most 100 nM. As for `FC(F)(F)c1cnc2ccc(Cc3nc4ncnc(NCc5cnc6[nH]cc(Cl)c6c5)c4[nH]3)cc2c1` [Example 15, N-((3-chloro-1H-pyrrolo[2,3-b]pyridin-5-yl)methyl)-8-((3-(trifluoromethyl)quinolin-6-yl)methyl)-7H-purin-6-amine], the IC50 fell in the range of 100 to 1000 nM.

In the case of `Clc1c[nH]c2ncc(CNc3ncnc4nc(Cc5ccc6ncccc6c5)[nH]c34)cc12` [Example 17, N-((3-chloro-1H-pyrrolo[2,3-b]pyridin-5-yl)methyl)-8-(quinolin-6-ylmethyl)-7H-purin-6-amine], the IC50 is 100 to 1000 nM. Under `Cc1cc(N)nc(C)c1CNc1ncnc2nc(Cc3ccc4ncc(Cl)cc4c3)[nH]c12` [Example 19, N-((6-amino-2,4-dimethylpyridin-3-yl)methyl)-8-((3-chloroquinolin-6-yl)methyl)-7H-purin-6-amine] stands at most 100 nM; under `Clc1cnc2ccc(Cc3cc4c(NCc5cnc6[nH]cc(Cl)c6c5)n[nH]c4cn3)cc2c1` [Example 20, N-((3-chloro-1H-pyrrolo[2,3-b]pyridin-5-yl)methyl)-5-((3-chloroquinolin-6-yl)methyl)-1H-pyrazolo[3,4-c]pyridin-3-amine], 100 to 1000 nM; under `O=C(NCc1cc2c(Cl)c[nH]c2cc1F)c1ccc2c(c1)C(c1ccc3ncc(Cl)cc3c1)OC2` (stereo not shown) [Example 21, N-((3-chloro-6-fluoro-1H-indol-5-yl)methyl)-3-(3-chloroquinolin-6-yl)-1,3-dihydroisobenzofuran-5-carboxamide], 100 to 1000 nM.
